In PubChem BioAssay (NCI):
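How tested: cells in 96-well plates exposed to compound for 48 hours at five concentrations. At the TGI there is no net growth.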

How the values were obtained:
Assay in all cases: DTP human tumour cell line panel, 48 h
A549 NSCLC = tested on: A549 NSCLC
MDA-MB-435 = tested on: MDA-MB-435
SK-MEL-28 melanoma = tested on: SK-MEL-28 melanoma
UACC-62 melanoma = tested on: UACC-62 melanoma
MDA-N = tested on: MDA-N
SF-268 CNS = tested on: SF-268 CNS
OVCAR-4 ovarian = tested on: OVCAR-4 ovarian
T-47D breast = tested on: T-47D breast
CCRF-CEM leukemia = tested on: CCRF-CEM leukemia

CN(C)c1ccc(C=C2C(=O)N(c3ccccc3)N(c3ccccc3)C2=O)cc1
TGI (A549 NSCLC): > 100 µM
TGI (MDA-MB-435): > 100 µM
TGI (SK-MEL-28 melanoma): > 100 µM
TGI (UACC-62 melanoma): > 100 µM
TGI (MDA-N): > 100 µM
TGI (SF-268 CNS): > 100 µM

C(/Cc1ccc2c(c1)OCO2)=N\NC1=NCCN1
TGI (A549 NSCLC): > 100 µM
TGI (OVCAR-4 ovarian): > 100 µM
TGI (T-47D breast): > 100 µM
TGI (MDA-MB-435): > 100 µM
TGI (SK-MEL-28 melanoma): > 100 µM
TGI (UACC-62 melanoma): > 100 µM
TGI (CCRF-CEM leukemia): > 100 µM
TGI (SF-268 CNS): > 100 µM

CCOC(=O)c1c(-c2ccc(Cl)cc2)c(C#N)c(=S)n(C2OC(COC(C)=O)C(OC(C)=O)C(OC(C)=O)C2OC(C)=O)c1-c1ccccc1 (configuration not stated)
TGI (A549 NSCLC): > 100 µM
TGI (OVCAR-4 ovarian): > 100 µM
TGI (T-47D breast): > 100 µM
TGI (MDA-MB-435): > 100 µM
TGI (SK-MEL-28 melanoma): > 100 µM
TGI (UACC-62 melanoma): > 100 µM
TGI (MDA-N): > 100 µM
TGI (CCRF-CEM leukemia): > 100 µM
TGI (SF-268 CNS): > 100 µM

CCN(CC)C(=S)Nc1ccc(-c2cc3ccc(O)cc3oc2=O)cc1
TGI (A549 NSCLC): > 100 µM
TGI (MDA-MB-435): > 100 µM
TGI (SK-MEL-28 melanoma): > 100 µM
TGI (UACC-62 melanoma): > 100 µM
TGI (MDA-N): > 100 µM
TGI (CCRF-CEM leukemia): > 100 µM
TGI (SF-268 CNS): > 100 µM

Brc1ccc2c3c1[C@H]1O[C@H]1c1cccc(c1-3)[C@@H]1O[C@H]21
TGI (A549 NSCLC): 49.4 µM
TGI (OVCAR-4 ovarian): 28.8 µM
TGI (T-47D breast): 26.8 µM
TGI (MDA-MB-435): 29.4 µM
TGI (SK-MEL-28 melanoma): 36.5 µM
TGI (UACC-62 melanoma): 32.5 µM
TGI (MDA-N): 35.4 µM
TGI (SF-268 CNS): 36.8 µM

C(=N\Nc1ccc(-c2nc3ccccc3[nH]2)cc1)/c1c(-c2ccc(Cc3ccccc3)cc2)[nH]c2ccccc12
TGI (A549 NSCLC): > 100 µM
TGI (OVCAR-4 ovarian): > 93.6 µM
TGI (T-47D breast): 98.4 µM
TGI (MDA-MB-435): > 27.4 µM
TGI (SK-MEL-28 melanoma): > 100 µM
TGI (UACC-62 melanoma): > 54.3 µM
TGI (MDA-N): > 24.5 µM
TGI (CCRF-CEM leukemia): > 100 µM
TGI (SF-268 CNS): 10 µM
